Reference: PMC4942819 (Scientific Reports, 2016)
≈ marks a conversion by molar mass, not a printed value.

test system: H37Rv; experiment: microbe, parasite or virus in culture; assay type: cell-based, Mycobacterium tuberculosis; settings: Mycobacterium tuberculosis, H37RV, read-out: MIC, strain H37Rv

Structure (SMILES) | MIC [µg/mL]
[H]/N=C(/N)N[C@H]1[C@H](O)[C@@H](O)[C@H](O[C@@H]2O[C@@H](C)[C@](O)(C=O)[C@H]2O[C@@H]2O[C@@H](CO)[C@H](O)[C@@H](O)[C@@H]2NC)[C@@H](N/C(N)=N\[H])[C@@H]1O [SM, streptomycin] | 1 (≈ 1.72 µM)
NNC(=O)c1ccncc1 [INH, isoniazid] | 0.03 (≈ 0.219 µM)
NCC[C@H](O)C(=O)N[C@@H]1C[C@H](N)[C@@H](O[C@H]2O[C@H](CN)[C@@H](O)[C@H](O)[C@H]2O)[C@H](O)[C@H]1O[C@H]1O[C@H](CO)[C@@H](O)[C@H](N)[C@H]1O [AMK, amikacin] | 0.5 (≈ 0.854 µM)
CC[C@@H](CO)NCCN[C@@H](CC)CO [EMB, ethambutol] | 1 (≈ 4.89 µM)
CC1COc2c(N3CCN(C)CC3)c(F)cc3c(=O)c(C(=O)O)cn1c23 (stereo not shown) [OFLX, ofloxacin] | 0.5 (≈ 1.38 µM)
O=[N+]([O-])c1cc(C(F)(F)F)cc2c(=S)nc(N3CCC4(CC3)OCCO4)sc12 [SKLB-TB1001, 8-nitro-2-(1,4-dioxa-8-azaspiro[4.5]decan-8-yl)-6-(trifluoromethyl)-4H-benzo[e][1,3]thiazine-4-thione] | < 0.0156
COc1c(N2C[C@@H]3CCCN[C@@H]3C2)c(F)cc2c(=O)c(C(=O)O)cn(C3CC3)c12 [MOX, moxifloxacin] | 0.06 (≈ 0.149 µM)
CO[C@H]1/C=C/O[C@@]2(C)Oc3c(C)c(O)c4c(O)c(c(/C=N/N5CCN(C)CC5)c(O)c4c3C2=O)NC(=O)/C(C)=C\C=C\[C@H](C)[C@H](O)[C@@H](C)[C@@H](O)[C@@H](C)[C@H](OC(C)=O)[C@@H]1C [RMP, rifampicin] | < 0.03

same assay, conditions: Table 2 prints no unit; test range in method b43 in μg/mL

Structure (SMILES) | MIC, strain H37Rv [µg/mL]
C[C@H]1COc2c(N3CCN(C)CC3)c(F)cc3c(=O)c(C(=O)O)cn1c23 [LVFX, levo-ofloxacin] | 0.25 (≈ 0.692 µM)
NC[C@H]1O[C@H](O[C@H]2[C@H](O)[C@@H](O[C@H]3O[C@H](CO)[C@@H](O)[C@H](N)[C@H]3O)[C@H](N)C[C@@H]2N)[C@H](O)[C@@H](O)[C@@H]1O [KM, kanamycin] | 1 (≈ 2.06 µM)
